What was measured:
[1] = Inhibition of Thermoanaerobacter brockii ADH by Michaelis constant analysis
[2] = Inhibition of yeast ADH by Michaelis constant analysis; design: species or system Saccharomyces cerevisiae
[3] = Inhibition of pig heart MDH by Michaelis constant analysis; design: species or system Sus scrofa
[4] = Inhibition of Leuconostoc mesenteroides D-LDH by Michaelis constant analysis
[5] = Inhibition of pig heart LDH by Michaelis constant analysis; design: species or system Sus scrofa
[6] = species on record: Gallus gallus; assay: Inhibition of chicken liver NAD kinase assessed as residual activity relative to control

Compound | Ki [1] [mM] | Ki [2] [mM] | Ki [3] [mM] | Ki [4] [mM] | Ki [5] [mM] | Activity [6] [%]
NC(=O)c1csc([C@@H]2O[C@H](COC(=O)[C@@H]3CCCC[C@H]3C(=O)OC[C@H]3O[C@@H](n4cnc5c(N)ncnc54)[C@H](O)[C@@H]3O)[C@@H](O)[C@H]2O)n1 | 0.71 | 0.62 | 0.7 | 10 | 0.8 | 81
NC(=O)c1csc([C@@H]2O[C@H](COC(=O)[C@H]3CCCC[C@@H]3C(=O)OC[C@H]3O[C@@H](n4cnc5c(N)ncnc54)[C@H](O)[C@@H]3O)[C@@H](O)[C@H]2O)n1 | 7.1 | 2.6 | 3.3 | 24 | 3.9 | 60
NC(=O)c1csc([C@@H]2O[C@H](COC(=O)CCC(=O)OC[C@H]3O[C@@H](n4cnc5c(N)ncnc54)[C@H](O)[C@@H]3O)[C@@H](O)[C@H]2O)n1 | 7.2 | 3.6 | 1.8 | 20 | 2.7 | 64

Source: ChEMBL document CHEMBL3627658, “Novel concept of enzyme selective nicotinamide adenine dinucleotide (NAD)-modified inhibitors based on enzyme taxonomy from the diphosphate conformation of NAD” (Bioorg Med Chem Lett, 2015)
